The results in this text go back to BindingDB's records for patent US9139585 (Merck Sharp & Dohme, 2015).

Molecules are shown by their SMILES.

The target of the test is T1, ATP-sensitive inward rectifier potassium channel 1 (Homo sapiens, UniProt P48048).
T1 sequence (P48048 whole entry): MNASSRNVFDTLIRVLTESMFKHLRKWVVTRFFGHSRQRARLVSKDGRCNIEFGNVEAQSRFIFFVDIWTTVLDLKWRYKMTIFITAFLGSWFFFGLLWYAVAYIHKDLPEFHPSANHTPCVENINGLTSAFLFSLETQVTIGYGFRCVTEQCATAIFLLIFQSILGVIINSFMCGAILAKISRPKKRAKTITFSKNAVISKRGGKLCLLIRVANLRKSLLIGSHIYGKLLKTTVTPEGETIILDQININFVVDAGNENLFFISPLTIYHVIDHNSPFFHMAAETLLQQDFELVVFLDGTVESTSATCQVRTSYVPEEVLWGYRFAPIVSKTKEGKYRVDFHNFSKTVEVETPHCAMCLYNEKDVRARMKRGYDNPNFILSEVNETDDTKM
Kind of test: Electrophysiology Assay. The following applies: pH 7.4; 37 °C. The method, then:
Chinese hamster ovary cells stably expressing Kir1.1 channels were maintained in T-75 flasks in cell culture media in a humidified 10% CO2 incubator at 37 °C. Prior to an experiment, Kir1.1 expression was induced by overnight incubation with 1 mM sodium butyrate. […] After centrifugation, the cell pellet was resuspended in approximately 4.0 ml of bath solution and placed in the IonWorks instrument. The intracellular solution consisted of (in mM): 80 K gluconate, 40 KCl, 20 KF, 3.2 MgCl2, 3 EGTA, 5 Hepes, pH 7.

In the case of `Cc1c([C@@H](O)CN2CCN(C[C@H](O)c3ccc4c(c3)CCS4(=O)=O)CC2)ccc2c1COC2=O` [US9139585, 43B], it took 95 nM to reach half-maximal inhibition (IC50).
